# In ChEMBL document CHEMBL3885881, “DrugMatrix”:
# Species: Rattus norvegicus
# Experiment: DrugMatrix - Regimen: Daily Repeat
# Type: toxicity, organism-based, Sprague-Dawley
# Design: regimen Daily Repeat, gender Male, age 6-8 weeks
# Settings: in vivo, po, 2 mg/kg, route oral GAVAGE, dose level Low, […]; for ABSOLUTE BASOPHIL / ABSOLUTE EOSINOPHIL / ABSOLUTE LYMPHOCYTE / ABSOLUTE MONOCYTE / ABSOLUTE SEGMENTED NEUTROPHIL / BASOPHIL / EOSINOPHIL / ERYTHROCYTE COUNT / HEMATOCRIT / HEMOGLOBIN / LEUKOCYTE COUNT / LYMPHOCYTE / MEAN CORPUSCULAR HEMOGLOBIN / MEAN CORPUSCULAR HEMOGLOBIN CONCENTRATION / MEAN CORPUSCULAR VOLUME / MONOCYTE / NEUTROPHIL / NUCLEATED RED BLOOD CELLS / PLATELET COUNT: tissue Blood; for ALANINE AMINOTRANSFERASE / ALBUMIN / ALKALINE PHOSPHATASE / ASPARTATE AMINOTRANSFERASE / BLOOD UREA NITROGEN / CARBON DIOXIDE / CHLORIDE / CHOLESTEROL / CREATINE PHOSPHOKINASE / CREATININE / GLUCOSE / LACTATE DEHYDROGENASE / LIPASE / PHOSPHORUS / POTASSIUM / SODIUM / TOTAL BILIRUBIN / TOTAL PROTEIN / URIC ACID: tissue Plasma
structure (smiles),measurement,setting,value
Cc1nnc2n1-c1ccc(Cl)cc1C(c1ccccc1)=NC2 [ALPRAZOLAM],ABSOLUTE BASOPHIL,"72 h, time 3 day",0 CELLS/uL
same,ABSOLUTE EOSINOPHIL,"72 h, time 3 day",40.33 CELLS/uL
same,ABSOLUTE LYMPHOCYTE,"72 h, time 3 day",13483.67 CELLS/uL
same,ABSOLUTE MONOCYTE,"72 h, time 3 day",168.67 CELLS/uL
same,ABSOLUTE SEGMENTED NEUTROPHIL,"72 h, time 3 day",1074 CELLS/uL
same,BASOPHIL,"72 h, time 3 day",0%
same,EOSINOPHIL,"72 h, time 3 day",0.33%
same,ERYTHROCYTE COUNT,"72 h, time 3 day",5.44 x10E6/uL
same,HEMATOCRIT,"72 h, time 3 day",34.8%
same,HEMOGLOBIN,"72 h, time 3 day",13.4 G/DL
same,LEUKOCYTE COUNT,"72 h, time 3 day",14.77 x10E3/uL
same,LYMPHOCYTE,"72 h, time 3 day",91%
same,MEAN CORPUSCULAR HEMOGLOBIN,"72 h, time 3 day",24.7 pg
same,MEAN CORPUSCULAR HEMOGLOBIN CONCENTRATION,"72 h, time 3 day",38.5 G/DL
same,MEAN CORPUSCULAR VOLUME,"72 h, time 3 day",64.17 fL
same,MONOCYTE,"72 h, time 3 day",1.33%
same,NEUTROPHIL,"72 h, time 3 day",7.33%
same,NUCLEATED RED BLOOD CELLS,"72 h, time 3 day",0 /100WBC
same,PLATELET COUNT,"72 h, time 3 day",1211 x10E3/uL
same,ALANINE AMINOTRANSFERASE,"72 h, time 3 day",78.67 u/L
same,ALBUMIN,"72 h, time 3 day",4.13 G/DL
same,ALKALINE PHOSPHATASE,"72 h, time 3 day",386.33 u/L
same,ASPARTATE AMINOTRANSFERASE,"72 h, time 3 day",99 u/L
same,BLOOD UREA NITROGEN,"72 h, time 3 day",15 mg/dL
same,CARBON DIOXIDE,"72 h, time 3 day",27 mmol/L
same,CHLORIDE,"72 h, time 3 day",99 MEQ/L
same,CHOLESTEROL,"72 h, time 3 day",68.67 mg/dL
same,CREATINE PHOSPHOKINASE,"72 h, time 3 day",276 u/L
same,CREATININE,"72 h, time 3 day",0.2 mg/dL
same,GLUCOSE,"72 h, time 3 day",160.33 mg/dL
same,LACTATE DEHYDROGENASE,"72 h, time 3 day",401.67 u/L
same,LIPASE,"72 h, time 3 day",10.33 u/L
same,PHOSPHORUS,"72 h, time 3 day",13.67 mg/dL
same,POTASSIUM,"72 h, time 3 day",7.37 MEQ/L
same,SODIUM,"72 h, time 3 day",142.63 MEQ/L
same,TOTAL BILIRUBIN,"72 h, time 3 day",0.23 mg/dL
same,TOTAL PROTEIN,"72 h, time 3 day",5.63 G/DL
same,URIC ACID,"72 h, time 3 day",1.7 mg/dL
same,ABSOLUTE BASOPHIL,"120 h, time 5 day",0 CELLS/uL
same,ABSOLUTE EOSINOPHIL,"120 h, time 5 day",0 CELLS/uL
same,ABSOLUTE LYMPHOCYTE,"120 h, time 5 day",13775.33 CELLS/uL
same,ABSOLUTE MONOCYTE,"120 h, time 5 day",53.67 CELLS/uL
same,ABSOLUTE SEGMENTED NEUTROPHIL,"120 h, time 5 day",1637.67 CELLS/uL
same,BASOPHIL,"120 h, time 5 day",0%
same,EOSINOPHIL,"120 h, time 5 day",0%
same,ERYTHROCYTE COUNT,"120 h, time 5 day",5.79 x10E6/uL
same,HEMATOCRIT,"120 h, time 5 day",35.1%
same,HEMOGLOBIN,"120 h, time 5 day",13.93 G/DL
same,LEUKOCYTE COUNT,"120 h, time 5 day",15.47 x10E3/uL
same,LYMPHOCYTE,"120 h, time 5 day",89%
same,MEAN CORPUSCULAR HEMOGLOBIN,"120 h, time 5 day",24.07 pg
same,MEAN CORPUSCULAR HEMOGLOBIN CONCENTRATION,"120 h, time 5 day",39.7 G/DL
same,MEAN CORPUSCULAR VOLUME,"120 h, time 5 day",60.57 fL
same,MONOCYTE,"120 h, time 5 day",0.33%
same,NEUTROPHIL,"120 h, time 5 day",10.67%
same,NUCLEATED RED BLOOD CELLS,"120 h, time 5 day",0 /100WBC
same,PLATELET COUNT,"120 h, time 5 day",1214.33 x10E3/uL
same,ALANINE AMINOTRANSFERASE,"120 h, time 5 day",67 u/L
same,ALBUMIN,"120 h, time 5 day",4 G/DL
same,ALKALINE PHOSPHATASE,"120 h, time 5 day",343.67 u/L
same,ASPARTATE AMINOTRANSFERASE,"120 h, time 5 day",109.67 u/L
same,BLOOD UREA NITROGEN,"120 h, time 5 day",15 mg/dL
same,CARBON DIOXIDE,"120 h, time 5 day",27 mmol/L
same,CHLORIDE,"120 h, time 5 day",101 MEQ/L
same,CHOLESTEROL,"120 h, time 5 day",81.67 mg/dL
same,CREATINE PHOSPHOKINASE,"120 h, time 5 day",429 u/L
same,CREATININE,"120 h, time 5 day",0.19 mg/dL
same,GLUCOSE,"120 h, time 5 day",142.33 mg/dL
same,LACTATE DEHYDROGENASE,"120 h, time 5 day",632 u/L
same,LIPASE,"120 h, time 5 day",10.67 u/L
same,PHOSPHORUS,"120 h, time 5 day",11.1 mg/dL
same,POTASSIUM,"120 h, time 5 day",5.98 MEQ/L
same,SODIUM,"120 h, time 5 day",144.97 MEQ/L
same,TOTAL BILIRUBIN,"120 h, time 5 day",0.13 mg/dL
same,TOTAL PROTEIN,"120 h, time 5 day",5.63 G/DL
same,URIC ACID,"120 h, time 5 day",1.63 mg/dL
